Measured values taken from paper PMC9848300, “Discovery of novel enasidenib analogues targeting inhibition of mutant isocitrate dehydrogenase 2 as antileukaemic agents” (Journal of Enzyme Inhibition and Medicinal Chemistry, 2023).
Where two headings read alike, the source gives them in different places.

Experiments:
Type in all cases: cell-based
NCI-H460 = assay: NCI 60 antitumor screening (single dose); conditions: Homo sapiens; NCI-H460 (non-small cell lung cancer), single dose 10 μM; read-out: Growth inhibition percentage (GI %)
In short: (§1)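 Compounds were tested at a single 10 μM dose against the NCI 60-cell-line panel (nine tumour types), in triplicate. Growth was recorded as percent growth (G%) of treated cells, and growth inhibition was taken as GI% = 100 − G%.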

NCI-H226 = assay: NCI 60 antitumor screening (single dose); conditions: Homo sapiens; NCI-H226 (non-small cell lung cancer), single dose 10 μM; read-out: Growth inhibition percentage (GI %)
In short: (§2)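 Read-out is percent growth (G%) of treated cancer cells relative to untreated, converted to percent inhibition as 100 − G%. Each compound was applied once at 10 μM across 60 human tumour lines under the NCI protocol.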

OVCAR-4 = assay: NCI 60 antitumor screening (single dose); conditions: Homo sapiens; OVCAR-4 (ovarian cancer), single dose 10 μM; read-out: Growth inhibition percentage (GI %)
In short: as §2

NCI-H522 = assay: NCI 60 antitumor screening (single dose); conditions: Homo sapiens; NCI-H522 (non-small cell lung cancer), single dose 10 μM; read-out: Growth inhibition percentage (GI %)
In short: as §1

M14 = assay: NCI 60 antitumor screening (single dose); conditions: Homo sapiens; M14 (melanoma), single dose 10 μM; read-out: Growth inhibition percentage (GI %)
In short: as §2

A549/ATCC = assay: NCI 60 antitumor screening (single dose); conditions: Homo sapiens; A549/ATCC (non-small cell lung cancer), single dose 10 μM; read-out: Growth inhibition percentage (GI %)
In short: as §2

MCF7 = assay: NCI 60 antitumor screening (single dose); conditions: Homo sapiens; MCF7 (breast cancer), single dose 10 μM; read-out: Growth inhibition percentage (GI %)
In short: as §2

NCI-H322M = assay: NCI 60 antitumor screening (single dose); conditions: Homo sapiens; NCI-H322M (non-small cell lung cancer), single dose 10 μM; read-out: Growth inhibition percentage (GI %)
In short: as §2

SK-OV-3 = assay: NCI 60 antitumor screening (single dose); conditions: Homo sapiens; SK-OV-3 (ovarian cancer), single dose 10 μM; read-out: Growth inhibition percentage (GI %)
In short: as §1

OVCAR-8 = assay: NCI 60 antitumor screening (single dose); conditions: Homo sapiens; OVCAR-8 (ovarian cancer), single dose 10 μM; read-out: Growth inhibition percentage (GI %)
In short: as §2

PC-3 = assay: NCI 60 antitumor screening (single dose); conditions: Homo sapiens; PC-3 (prostate cancer), single dose 10 μM; read-out: Growth inhibition percentage (GI %)
In short: as §2

SNB-19 = assay: NCI 60 antitumor screening (single dose); conditions: Homo sapiens; SNB-19 (CNS cancer), single dose 10 μM; read-out: Growth inhibition percentage (GI %)
In short: as §2

CAKI-1 = assay: NCI 60 antitumor screening (single dose); conditions: Homo sapiens; CAKI-1 (renal cancer), single dose 10 μM; read-out: Growth inhibition percentage (GI %)
In short: as §2

KM 12 = assay: NCI 60 antitumor screening (single dose); conditions: Homo sapiens, KM12; KM 12 (colon cancer), single dose 10 μM; read-out: Growth inhibition percentage (GI %)
In short: as §2

HOP-62 = assay: NCI 60 antitumor screening (single dose); conditions: Homo sapiens; HOP-62 (non-small cell lung cancer), single dose 10 μM; read-out: Growth inhibition percentage (GI %)
In short: as §1

TK-10 = assay: NCI 60 antitumor screening (single dose); conditions: Homo sapiens; TK-10 (renal cancer), single dose 10 μM; read-out: Growth inhibition percentage (GI %)
In short: as §2

SF-268 = assay: NCI 60 antitumor screening (single dose); conditions: Homo sapiens; SF-268 (CNS cancer), single dose 10 μM; read-out: Growth inhibition percentage (GI %)
In short: as §1

OVCAR-5 = assay: NCI 60 antitumor screening (single dose); conditions: Homo sapiens; OVCAR-5 (ovarian cancer), single dose 10 μM; read-out: Growth inhibition percentage (GI %)
In short: as §1

HCC-2998 = assay: NCI 60 antitumor screening (single dose); conditions: Homo sapiens; HCC-2998 (colon cancer), single dose 10 μM; read-out: Growth inhibition percentage (GI %)
In short: as §1

HS 578T = assay: NCI 60 antitumor screening (single dose); conditions: Homo sapiens; HS 578T (breast cancer), single dose 10 μM; read-out: Growth inhibition percentage (GI %)
In short: as §2

U251 = assay: NCI 60 antitumor screening (single dose); conditions: Homo sapiens, U-251; U251 (CNS cancer), single dose 10 μM; read-out: Growth inhibition percentage (GI %)
In short: as §1

NCI-H23 = assay: NCI 60 antitumor screening (single dose); conditions: Homo sapiens; NCI-H23 (non-small cell lung cancer), single dose 10 μM; read-out: Growth inhibition percentage (GI %)
In short: as §1

OVCAR-3 = assay: NCI 60 antitumor screening (single dose); conditions: Homo sapiens; OVCAR-3 (ovarian cancer), single dose 10 μM; read-out: Growth inhibition percentage (GI %)
In short: as §2

MDA-MB-435 = assay: NCI 60 antitumor screening (single dose / five doses); conditions: Homo sapiens
SR = assay: as above; conditions: Homo sapiens, read-out: Growth inhibition percentage (GI %)
RXF 393 = assay: as above; conditions: Homo sapiens
HOP-92 = assay: as above; conditions: Homo sapiens
[1] = MDA-MB-435 (melanoma), single dose 10 μM, read-out: Growth inhibition percentage (GI %)
[2] = SR (leukaemia), single dose 10 μM
[3] = RXF 393 (renal cancer), single dose 10 μM, read-out: Growth inhibition percentage (GI %)
[4] = HOP-92 (non-small cell lung cancer), single dose 10 μM, read-out: Growth inhibition percentage (GI %)

Structure (SMILES)	inhibition at 10 µM (NCI-H460)	inhibition at 10 µM (NCI-H226)	inhibition at 10 µM (OVCAR-4)	inhibition at 10 µM (NCI-H522)	inhibition at 10 µM (M14)	inhibition at 10 µM (A549/ATCC)	inhibition at 10 µM (MCF7)	inhibition at 10 µM (NCI-H322M)	inhibition at 10 µM (SK-OV-3)	inhibition at 10 µM (OVCAR-8)	inhibition at 10 µM (PC-3)	inhibition at 10 µM (SNB-19)	inhibition at 10 µM (CAKI-1)	inhibition at 10 µM (KM 12)	inhibition at 10 µM (HOP-62)	inhibition at 10 µM (TK-10)	inhibition at 10 µM (SF-268)	inhibition at 10 µM (OVCAR-5)	inhibition at 10 µM (HCC-2998)	inhibition at 10 µM (HS 578T)	further results
Oc1ccc(/C=N/Nc2nc(N/N=C/c3ccc(O)c(O)c3)nc(N3CCCCC3)n2)cc1O [compound 7j, 4-[(1e)-(2-{4-[(E)-2-[(3,4-Dihydroxyphenyl)methylidene]hydrazin-1-yl]-6-(piperidin-1-yl)-1,3,5-triazin-2-yl}hydrazin-1-ylidene)methyl]benzene-1,2-diol]	0.77%	4.47%	-0.74%	6.61%	-3.18%	-0.07%	4.27%	-2.3%	-24.8%	1.94%	9.42%	13.7%	13.4%	-0.29%	-10.5%	-3.52%	-2.56%	-13.1%	-5%	-6.08%	inhibition at 10 µM (U251): 9.07%; inhibition at 10 µM (NCI-H23): 0.5%; inhibition at 10 µM (OVCAR-3): 5.01%; inhibition at 10 µM (MDA-MB-435; [1]): -1.68%; inhibition at 10 µM (SR; [2]): 25.9%; inhibition at 10 µM (RXF 393; [3]): -17.8%; inhibition at 10 µM (HOP-92; [4]): -9.47%
C(=N\Nc1nc(N/N=C/c2ccc3c(c2)OCO3)nc(N2CCCCC2)n1)/c1ccc2c(c1)OCO2 [compound 7k, 2,4-Bis[(E)-2-(2H-1,3-Benzodioxol-5-ylmethylidene)hydrazin-1-yl]-6-(piperidin-1-yl)-1,3,5-triazine]	9.41%	-0.61%	-9.55%	8.07%	2.72%	8.56%	45.2%	1.53%	-39.5%	9.89%	26.4%	19.7%	1.07%	13.8%	-22.5%	-21%	-0.46%	-18.2%	16.2%	-4.09%	inhibition at 10 µM (U251): 18.6%; inhibition at 10 µM (NCI-H23): -1.44%; inhibition at 10 µM (OVCAR-3): -5.21%; inhibition at 10 µM (MDA-MB-435; [1]): 1.52%; inhibition at 10 µM (SR; [2]): 99.9%; inhibition at 10 µM (RXF 393; [3]): 20.3%; inhibition at 10 µM (HOP-92; [4]): 4.01%
Fc1cccc(Cl)c1/C=N/Nc1nc(N/N=C/c2c(F)cccc2Cl)nc(N2CCCCC2)n1 [compound 7l, 2,4-Bis[(E)-2-[(2-Chloro-6-fluorophenyl)methylidene]hydrazin-1-yl]-6-(piperidin-1-yl)-1,3,5-triazine]	80.1%	46.1%	79%	89.6%	88.1%	78.4%	96.9%	64.2%	60.9%	74.2%	81.3%	74.2%	85.9%	89.2%	74.1%	72.8%	63.3%	72.2%	75.7%	66.7%	inhibition at 10 µM (U251): 73.2%; inhibition at 10 µM (NCI-H23): 55.2%; inhibition at 10 µM (OVCAR-3): 77.3%; inhibition at 10 µM (MDA-MB-435; [1]): 96.2%; GI50 (MDA-MB-435; MDA-MB-435, five doses (0.01–100 μM), read-out: GI50): 2860 nM; inhibition at 10 µM (SR; [2]): 83.9%; inhibition at 10 µM (RXF 393; [3]): 96.6%; GI50 (RXF 393; RXF 393, five doses (0.01–100 μM), read-out: GI50): 2650 nM; inhibition at 10 µM (HOP-92; [4]): 101%; GI50 (HOP-92; HOP-92, five doses (0.01–100 μM), read-out: GI50): 1470 nM
C/C(=N\Nc1nc(N/N=C(\C)c2ccc([N+](=O)[O-])cc2)nc(N2CCOCC2)n1)c1ccc([N+](=O)[O-])cc1 [compound 8a, 2-(Morpholin-4-yl)-4,6-bis[(E)-2-[1–(4-nitrophenyl)ethylidene]hydrazin-1-yl]-1,3,5-triazine]	21.9%	58.1%	22.4%	38.3%	25.5%	26.1%	25.9%	13.3%	-13%	36.4%	23.4%	36.9%	30.8%	17.9%	13.8%	19.2%	3.96%	4.46%	3.95%	21.3%	inhibition at 10 µM (U251): 7.36%; inhibition at 10 µM (NCI-H23): 42.1%; inhibition at 10 µM (OVCAR-3): 11.6%; inhibition at 10 µM (MDA-MB-435; MDA-MB-435, read-out: Growth inhibition percentage (GI %)): 15%; inhibition at 10 µM (SR; SR): -13.1%; inhibition at 10 µM (RXF 393; RXF 393, read-out: Growth inhibition percentage (GI %)): 26.3%; inhibition at 10 µM (HOP-92; HOP-92, read-out: Growth inhibition percentage (GI %)): 35.9%
